Columns and labels:
[1] = tested on: SW48 cells; assay: Proliferation assay SW48 (CellTiterGlo); type: cell-based; details: Homo sapiens, SW48, 96 h, SW48 colon carcinoma cells, 96 hours, CellTiterGlo; geometric mean of at least 2; read-out: Proliferation Assay SW48 GI50
Summary of the method: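 Read-out is CellTiterGlo luminescence after 96 hours of compound exposure, with % growth calculated against day-0 and vehicle-treated ATP levels. SW48 seeded at 2,000 cells/well, dosed next day with eight 3-fold serial dilutions, 0.1% DMSO. GI50 reported as geometric mean, at least 2 replicates.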

[2] = target: T1, WRN helicase (aa N517-P1238) (Homo sapiens, UniProt Q14191); assay: WRN ATPase assay (DNA dependent ATP hydrolysis, ADP-Glo); type: biochemical; details: 3 hours pre-incubation, 300 micromolar ATP, FLAP26 DNA; geometric mean of at least 2
T1 construct: The core helicase motif of the WRN protein (aa N517-P1238) was produced for this assay; His (N); ZZ (N); 3C protease cleavage site (N); made in house; host or cells: Sf21 insect cells (baculovirus; virus and BIICs made in SF9)
T1 sequence (Q14191 517-1238): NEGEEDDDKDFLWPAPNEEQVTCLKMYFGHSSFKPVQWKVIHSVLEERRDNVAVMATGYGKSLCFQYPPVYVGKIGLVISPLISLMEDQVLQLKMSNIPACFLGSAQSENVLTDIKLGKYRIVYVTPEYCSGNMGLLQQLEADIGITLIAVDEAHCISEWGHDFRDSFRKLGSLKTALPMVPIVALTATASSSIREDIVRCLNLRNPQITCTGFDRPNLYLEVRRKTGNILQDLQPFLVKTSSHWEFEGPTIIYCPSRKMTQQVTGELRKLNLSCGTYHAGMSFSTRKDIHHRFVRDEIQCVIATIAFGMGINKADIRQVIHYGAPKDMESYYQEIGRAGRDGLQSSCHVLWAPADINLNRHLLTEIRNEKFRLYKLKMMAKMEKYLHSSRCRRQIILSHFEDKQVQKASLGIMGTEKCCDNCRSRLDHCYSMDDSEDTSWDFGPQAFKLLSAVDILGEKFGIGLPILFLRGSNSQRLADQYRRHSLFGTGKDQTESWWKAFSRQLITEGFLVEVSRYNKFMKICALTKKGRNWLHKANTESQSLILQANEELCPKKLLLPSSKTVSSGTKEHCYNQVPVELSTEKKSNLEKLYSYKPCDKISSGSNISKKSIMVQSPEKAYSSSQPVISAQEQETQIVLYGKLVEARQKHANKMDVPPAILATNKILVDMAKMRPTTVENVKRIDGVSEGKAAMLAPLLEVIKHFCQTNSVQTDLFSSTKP
Summary of the method: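 DNA-dependent ATP hydrolysis detected as ADP by ADP-Glo luminescence, using 300 μM ATP, 0.2 nM FLAP26 substrate and 10 nM WRN aa N517-P1238 (Tris pH 7.5 buffer, 2 mM MgCl2, 50 mM NaCl). IC50s fitted from normalized duplicate half-log dilutions; reported as geometric means of at least 2 replicates.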

[3] = tested on: DLD1-WRN-KO cells; assay: Proliferation assay DLD1-WRN-KO (CellTiterGlo, off-target effects); type: cell-based; details: 96 hours, geometric mean of at least 2
Summary of the method: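 DLD1 cells with CRISPR knockout of WRN were exposed overnight-seeded to eight 3-fold compound dilutions (0.1% DMSO) for 96 h at 37 °C. Viability was read as ATP by CellTiterGlo luminescence against a day-0 plate, giving GI50 and residual viability at top concentration.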

| SMILES | GI50 [1] [µM] | IC50 [2] [nM] | GI50 [3] [µM] |
| --- | --- | --- | --- |
| CC(=O)N1CCN(c2c(C)n(CC(=O)Nc3ccc(S(F)(F)(F)(F)F)cc3)c3nc(C4=CCCCO4)nn3c2=O)CC1 [Example 127, 2-(6-(4-acetylpiperazin-1-yl)-2-(3,4-dihydro-2H-pyran-6-yl)-5-methyl-7-oxo-[1,2,4]triazolo[1,5-a]pyrimidin-4(7H)-yl)-N-(4-(pentafluoro-16-sulfaneyl)phenyl)acetamide] | > 10 | 20 | 7 |
| CC(=O)N1CCN(c2c(C)n(CC(=O)Nc3ccc(C(F)(F)F)cc3)c3nc(-c4cnn(C(F)F)c4)nn3c2=O)CC1 [Example 128, 2-(6-(4-acetylpiperazin-1-yl)-2-(1-(difluoromethyl)-1H-pyrazol-4-yl)-5-methyl-7-oxo-[1,2,4]triazolo[1,5-a]pyrimidin-4(7H)-yl)-N-(4-(trifluoromethyl)phenyl)acetamide] | 7 | 800 | > 10 |
| CC(=O)N1CCN(c2c(C)n(CC(=O)Nc3ccc(Cl)c4c3CCC4)c3nc(C4=CCOCC4)nn3c2=O)CC1 [Example 129, 2-(6-(4-acetylpiperazin-1-yl)-2-(3,6-dihydro-2H-pyran-4-yl)-5-methyl-7-oxo-[1,2,4]triazolo[1,5-a]pyrimidin-4(7H)-yl)-N-(7-chloro-2,3-dihydro-1H-inden-4-yl)acetamide] | 5 | 800 | > 10 |
| CCON1CCN(c2nc3n(CC(=O)Nc4ccc(C(F)(F)F)cc4)c(C)c(N4CCN(C(C)=O)CC4)c(=O)n3n2)CC1 [Example 131, 2-(6-(4-acetylpiperazin-1-yl)-2-(4-ethoxypiperazin-1-yl)-5-methyl-7-oxo-[1,2,4]triazolo[1,5-a]pyrimidin-4(7H)-yl)-N-(4-(trifluoromethyl)phenyl)acetamide] | 6 | 1000 | > 10 |
| CON1CCN(c2nc3n(CC(=O)Nc4ccc(C(F)(F)F)cc4)c(C)c(N4CCN(C(C)=O)CC4)c(=O)n3n2)CC1 [Example 132, 2-(6-(4-acetylpiperazin-1-yl)-2-(4-methoxypiperazin-1-yl)-5-methyl-7-oxo-[1,2,4]triazolo[1,5-a]pyrimidin-4(7H)-yl)-N-(4-(trifluoromethyl)phenyl)acetamide] | 10 | 2000 | > 10 |
| COCC1CCN(c2nc3n(CC(=O)Nc4ccc(C(F)(F)F)cc4)c(C)c(N4CCN(C(C)=O)CC4)c(=O)n3n2)C1 (stereo not drawn) [Example 133, 2-(6-(4-acetylpiperazin-1-yl)-2-(3-(methoxymethyl)pyrrolidin-1-yl)-5-methyl-7-oxo-[1,2,4]triazolo[1,5-a]pyrimidin-4(7H)-yl)-N-(4-(trifluoromethyl)phenyl)acetamide] | 6 | 2000 | > 10 |
| CC(=O)N1CCN(c2c(C)n(CC(=O)Nc3ccc(C(F)(F)F)cc3)c3nc(C4=CCCO4)nn3c2=O)CC1 [Example 134, 2-(6-(4-acetylpiperazin-1-yl)-2-(4,5-dihydrofuran-2-yl)-5-methyl-7-oxo-[1,2,4]triazolo[1,5-a]pyrimidin-4(7H)-yl)-N-(4-(trifluoromethyl)phenyl)acetamide] | 5 | 4000 | > 10 |
| CC(=O)N1CCN(c2c(C)n(CC(=O)Nc3ccc(C(F)(F)F)cc3)c3nc(-c4cnc(C)o4)nn3c2=O)CC1 [Example 135, 2-(6-(4-acetylpiperazin-1-yl)-5-methyl-2-(2-methyloxazol-5-yl)-7-oxo-[1,2,4]triazolo[1,5-a]pyrimidin-4(7H)-yl)-N-(4-(trifluoromethyl)phenyl)acetamide] | > 10 | 400 | > 10 |
| CCc1c(C2=CCN(C(C)=O)CC2)c(=O)n2nc(C3=CCC(OC)CC3)nc2n1CC(=O)Nc1ccc(C(F)(F)F)cc1 (stereo not drawn) [Example 140, 2-(6-(1-acetyl-1,2,3,6-tetrahydropyridin-4-yl)-5-ethyl-2-(4-methoxycyclohex-1-en-1-yl)-7-oxo-[1,2,4]triazolo[1,5-a]pyrimidin-4(7H)-yl)-N-(4-(trifluoromethyl)phenyl)acetamide] | 4 | 100 | > 10 |
| CC(=O)N1CCC(c2c(C)n(CC(=O)Nc3ccc(C(F)(F)F)cc3)c3nc(C4=CCOCC4)nn3c2=O)CC1 [Example 141, 2-(6-(1-acetylpiperidin-4-yl)-2-(3,6-dihydro-2H-pyran-4-yl)-5-methyl-7-oxo-[1,2,4]triazolo[1,5-a]pyrimidin-4(7H)-yl)-N-(4-(trifluoromethyl)phenyl)acetamide] | 8 | 400 | > 10 |
| CCc1c(C2=CCN(C(C)=O)CC2)c(=O)n2nc(C3=CCCCO3)nc2n1CC(=O)Nc1ccc(C(F)(F)F)cc1 [Example 142, 2-(6-(1-acetyl-1,2,3,6-tetrahydropyridin-4-yl)-2-(3,4-dihydro-2H-pyran-6-yl)-5-ethyl-7-oxo-[1,2,4]triazolo[1,5-a]pyrimidin-4(7H)-yl)-N-(4-(trifluoromethyl)phenyl)acetamide] | 5 | 600 | > 10 |
| Cc1c(C2CCN(C(=O)c3ccc(F)c(F)c3O)CC2)c(=O)n2nc(N3CCOCC3)nc2n1CC(=O)Nc1ccc(C(F)(F)F)cc1 [Example 146, 2-(6-(1-(3,4-difluoro-2-hydroxybenzoyl)piperidin-4-yl)-5-methyl-2-morpholino-7-oxo-[1,2,4]triazolo[1,5-a]pyrimidin-4(7H)-yl)-N-(4-(trifluoromethyl)phenyl)acetamide] | 4 | 90 | > 10 |
| CC(=O)N1CCN(c2c(C3CC3)n(CC(=O)Nc3ccc(C(F)(F)F)cc3)c3nc(C4=CCOCC4)nn3c2=O)CC1 [Example 147, 2-(6-(4-acetylpiperazin-1-yl)-5-cyclopropyl-2-(3,6-dihydro-2H-pyran-4-yl)-7-oxo-[1,2,4]triazolo[1,5-a]pyrimidin-4(7H)-yl)-N-(4-(trifluoromethyl)phenyl)acetamide] | 6 | 600 | > 10 |

Other lines, results leading:

| GI50 [1] [µM] | IC50 [2] [nM] | GI50 [3] [µM] | SMILES |
| --- | --- | --- | --- |
| 4 | 800 | > 10 | CC(=O)N1CCN(c2c(C)n(CC(=O)Nc3ccc(C(F)(F)F)cc3)c3nc(C4=CCCOC4)nn3c2=O)CC1 [Example 126, 2-(6-(4-acetylpiperazin-1-yl)-2-(5,6-dihydro-2H-pyran-3-yl)-5-methyl-7-oxo-[1,2,4]triazolo[1,5-a]pyrimidin-4(7H)-yl)-N-(4-(trifluoromethyl)phenyl)acetamide] |
| 2 | 900 | 7 | CC(=O)N1CCN(c2c(C)n(CC(=O)Nc3ccc(C(F)(F)F)cc3)c3nc(-c4ccccc4)nn3c2=O)CC1 [Example 130, 2-(6-(4-acetylpiperazin-1-yl)-5-methyl-7-oxo-2-phenyl-[1,2,4]triazolo[1,5-a]pyrimidin-4(7H)-yl)-N-(4-(trifluoromethyl)phenyl)acetamide] |
| 0.5 | 20 | > 10 | Cc1c(C2CCN(C(=O)c3c(F)ccc(F)c3O)CC2)c(=O)n2nc(C3=CCOCC3)nc2n1CC(=O)Nc1ccc(C(F)(F)F)cc1 [Example 136, 2-(6-(1-(3,6-difluoro-2-hydroxybenzoyl)piperidin-4-yl)-2-(3,6-dihydro-2H-pyran-4-yl)-5-methyl-7-oxo-[1,2,4]triazolo[1,5-a]pyrimidin-4(7H)-yl)-N-(4-(trifluoromethyl)phenyl)acetamide] |
| 0.3 | 50 | > 10 | Cc1c(C2CCN(C(=O)c3c(F)ccc(F)c3O)CC2)c(=O)n2nc(C3=CCCCO3)nc2n1CC(=O)Nc1ccc(C(F)(F)F)cc1 [Example 137, 2-(6-(1-(3,6-difluoro-2-hydroxybenzoyl)piperidin-4-yl)-2-(3,4-dihydro-2H-pyran-6-yl)-5-methyl-7-oxo-[1,2,4]triazolo[1,5-a]pyrimidin-4(7H)-yl)-N-(4-(trifluoromethyl)phenyl) acetamide] |
| 1 | 80 | > 10 | CCc1c(C2CCN(C(C)=O)CC2)c(=O)n2nc(C3=CCCCO3)nc2n1CC(=O)Nc1ccc(C(F)(F)F)cc1 [Example 138, 2-(6-(1-acetylpiperidin-4-yl)-2-(3,4-dihydro-2H-pyran-6-yl)-5-ethyl-7-oxo-[1,2,4]triazolo[1,5-a]pyrimidin-4(7H)-yl)-N-(4-(trifluoromethyl)phenyl)acetamide] |
| 1 | 100 | > 10 | CCc1c(C2CCN(C(C)=O)CC2)c(=O)n2nc(C3=CCC(OC)CC3)nc2n1CC(=O)Nc1ccc(C(F)(F)F)cc1 (stereo not drawn) [Example 139, 2-(6-(1-acetylpiperidin-4-yl)-5-ethyl-2-(4-methoxycyclohex-1-en-1-yl)-7-oxo-[1,2,4]triazolo[1,5-a]pyrimidin-4(7H)-yl)-N-(4-(trifluoromethyl)phenyl)acetamide] |
